From US20120095056A1, “2,5-DISUBSTITUTED TETRAZOLE DERIVATIVES AND THEIR USE AS NICOTINIC ACETYLCHOLINE RECEPTOR MODULATORS” (NEUROSEARCH A/S, priority 2009, published 2012)

Columns and labels:
[1] = target: T1, human nicotinic acetylcholine receptor subtype a4b2 (Homo sapiens, UniProt P17787+P43681); test: FLIPR nAChR a4b2 positive allosteric modulator activity (modulation of nicotine-induced response); type: cell-based; settings: shift of nicotine pEC50 in the presence of 10 μM test compound compared to nicotine alone, HEK-293 cells stably expressing hα4β2
T1 construct: expressed in transfected cells
T1 sequence (P43681 29-627 limits assumed): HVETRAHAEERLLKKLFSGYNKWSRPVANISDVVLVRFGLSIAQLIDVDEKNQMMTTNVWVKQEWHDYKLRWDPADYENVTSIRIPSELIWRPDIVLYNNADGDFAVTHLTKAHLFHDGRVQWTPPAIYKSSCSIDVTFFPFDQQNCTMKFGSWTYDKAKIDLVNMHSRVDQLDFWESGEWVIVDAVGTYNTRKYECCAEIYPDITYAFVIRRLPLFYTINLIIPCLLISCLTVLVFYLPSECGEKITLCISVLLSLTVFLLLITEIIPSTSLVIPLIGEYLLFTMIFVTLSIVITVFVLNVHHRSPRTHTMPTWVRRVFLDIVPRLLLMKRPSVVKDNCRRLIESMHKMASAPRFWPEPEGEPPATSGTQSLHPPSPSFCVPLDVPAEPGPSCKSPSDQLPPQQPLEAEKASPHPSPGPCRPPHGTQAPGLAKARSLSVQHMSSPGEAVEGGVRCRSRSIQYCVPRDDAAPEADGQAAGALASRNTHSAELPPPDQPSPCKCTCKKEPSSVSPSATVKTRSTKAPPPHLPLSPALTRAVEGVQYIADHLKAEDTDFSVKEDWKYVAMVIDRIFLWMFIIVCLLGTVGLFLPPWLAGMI
T1 sequence (P17787 26-502): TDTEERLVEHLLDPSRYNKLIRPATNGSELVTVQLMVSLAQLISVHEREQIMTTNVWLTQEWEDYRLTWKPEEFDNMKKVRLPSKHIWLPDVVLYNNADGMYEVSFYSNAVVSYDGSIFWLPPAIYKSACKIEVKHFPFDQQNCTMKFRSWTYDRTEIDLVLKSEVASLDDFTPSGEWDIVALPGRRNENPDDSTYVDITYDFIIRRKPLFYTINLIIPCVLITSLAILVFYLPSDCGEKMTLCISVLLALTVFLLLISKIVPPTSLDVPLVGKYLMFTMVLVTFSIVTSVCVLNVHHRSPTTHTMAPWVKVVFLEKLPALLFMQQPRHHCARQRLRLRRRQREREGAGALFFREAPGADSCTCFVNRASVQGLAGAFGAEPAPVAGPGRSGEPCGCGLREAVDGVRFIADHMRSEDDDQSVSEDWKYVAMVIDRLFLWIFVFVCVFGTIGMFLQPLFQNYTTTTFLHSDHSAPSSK
Description: Characterization of hα4β2 Positive Allosteric Modulators Using FLIPR
The modulator activity is determined as a fluorescence-based assay using a Fluorometric Imaging Plate Reader (FLIPR) as described below in more detail.
Full concentration-response curves of nicotine +/− test compound are generated and delta pEC50 values are calculated based on EC50 values for nicotine +/− test compound. EC50 values (Effective Concentration 50%) represent the concentration of the nicotine, at which the nicotine-induced response is 50% of the maximal nicotine-induced response.

| Structure (SMILES) | melting point | Delta pEC50 [1] |
| --- | --- | --- |
| N#Cc1cccc(-c2nnn(-c3cccnc3)n2)c1 [Compound 2.2, 3-(2-Pyridin-3-yl-2h-tetrazol-5-yl)-benzonitrile] | 185 to 205 °C | 1.9 |
| Cl.N#Cc1cccc(-c2nnn(-c3ccc(F)nc3)n2)c1 [Compound 2.3, 3-[2-(6-Fluoro-3-pyridyl)tetrazol-5-yl]benzonitrile hydrochloride] | 168 to 170 °C | 1.7 |
| N#Cc1cccc(-n2nnc(-c3cccnc3)n2)c1 [Compound 2.1, 3-(5-Pyridin-3-yl-tetrazol-2-yl)-benzonitrile] |  | 1.9 |
| N#Cc1cccc(-n2nnc(-c3ccc(F)nc3)n2)c1 [Compound 2.10, 3-[5-(6-Fluoro-3-pyridyl)tetrazol-2-yl]benzonitrile] |  | 1.3 |
| N#Cc1ccc(-n2nnc(-c3cccnc3)n2)cc1C#N [Compound 2.14, 4-[5-(3-Pyridyl)tetrazol-2-yl]phthalonitrile] |  | 1.1 |

More lines, now with the values ahead:

| melting point | Delta pEC50 [1] | Structure (SMILES) |
| --- | --- | --- |
|  | 1.8 | N#Cc1cccc(-c2nnn(-c3cncc(F)c3)n2)c1 [Compound 2.6, 3-[2-(5-Fluoro-3-pyridyl)tetrazol-5-yl]benzonitrile] |
| 175 to 191 °C |  | N#Cc1cccc(-c2nnn(-c3cncc(Br)c3)n2)c1 [Compound 2.5, 3-[2-(5-Bromo-3-pyridyl)tetrazol-5-yl]benzonitrile] |
|  | 1.6 | N#Cc1cccc(-n2nnc(-c3cncc(F)c3)n2)c1 [Compound 2.9, 3-[5-(5-Fluoro-3-pyridyl)tetrazol-2-yl]benzonitrile] |
